Data: patent US20060058314A1, “Oxazolidinone derivatives and their use as antibacterial agents” (AstraZeneca AB, priority 2002, published 2006)

Legend:
Assay type in all cases: cell-based
[1] = system: Staphylococcus aureus MRQR (methicillin resistant and quinolone resistant); test: MIC, agar dilution, staphylococci; conditions: 10^4 CFU/spot, 37° C., 24 hours
Method: (§1) The following results were obtained on a standard in-vitro test system. The activity is described in terms of the minimum inhibitory concentration (MIC) determined by the agar-dilution technique with an inoculum size of 10^4 CFU/spot. Typically, compounds are active in the range 0.01 to 256 μg/ml.
(§2) Staphylococci were tested on agar, using an inoculum of 10^4 CFU/spot and an incubation temperature of 37° C. for 24 hours—standard test conditions for the expression of methicillin resistance.

[2] = system: Staphylococcus aureus MSQS (methicillin sensitive and quinolone sensitive); test: MIC, agar dilution, staphylococci; conditions: 10^4 CFU/spot, 37° C., 24 hours
Method: as §1, §2

[3] = system: Linezolid Resistant Streptococcus pneumoniae; test: MIC, agar with 5% defibrinated horse blood, streptococci; conditions: agar + 5% horse blood, 10^4 CFU/spot, 37° C., 5% CO2, 48 hours
Method: as §1
(§3) Streptococci and enterococci were tested on agar supplemented with 5% defibrinated horse blood, an inoculum of 10^4 CFU/spot and an incubation temperature of 37° C. in an atmosphere of 5% carbon dioxide for 48 hours—blood is required for the growth of some of the test organisms. Fastidious Gram negative organisms were tested in Mueller-Hinton broth, supplemented with hemin and NAD, grown aerobically for 24 hours at 37° C., and with an innoculum of 5×10^4 CFU/well.

Streptococcus pneumoniae = test: as above; conditions: agar + 5% horse blood, 10^4 CFU/spot, 37° C., 5% CO2, 48 hours
Method: as §1, §3

Haemophilus influenzae = test: MIC, fastidious Gram negative organisms in Mueller-Hinton broth; conditions: Mueller-Hinton broth + hemin and NAD, 24 hours, 37° C., 5×10^4 CFU/well
Method: as §1, §3

Moraxella catarrhalis = test: as above; conditions: Mueller-Hinton broth + hemin and NAD, 24 hours, 37° C., 5×10^4 CFU/well
Method: as §1, §3

Enterococcus faecium = test: MIC, agar with 5% defibrinated horse blood, enterococci; conditions: agar + 5% horse blood, 10^4 CFU/spot, 37° C., 5% CO2, 48 hours
Method: as §1, §3

MIC [1]: 2 µg/mL
MIC [2]: 2 µg/mL
MIC [3]: 4 µg/mL
MIC (Streptococcus pneumoniae): 0.25 µg/mL
MIC (Haemophilus influenzae): 8 µg/mL
MIC (Moraxella catarrhalis): 2 µg/mL
MIC (Enterococcus faecium): 2 µg/mL
SMILES: O=C1O[C@@H](Cn2ccnn2)CN1c1ccc(-c2cnc(C3=NOC(CO)C3)nc2)c(F)c1 (mixture of isomers) [Example 1, 3-(3-Fluoro-4-{2-(5RS)-[5-(hydroxymethyl)-4,5-dihydroisoxazol-3-yl]pyrimidin-5-yl}phenyl)-5-(5R)-(1H-1,2,3-triazol-1-ylmethyl)-1,3-oxazolidin-2-one]
